# Results taken from patent US20040137592A1, “Novel SMG-1” (Japan Science and Technology Agency, priority 2001, published 2004).
# Where two headings read alike, the source gives them in different places.
# Tests used:
# 6H-hSMG-1 = molecular target: T1, 6H-hSMG-1 (Homo sapiens, UniProt Q96Q15); assay: in vitro kinase assay of 6H-hSMG-1 with hUpf1/SMG-2 fusion protein (S1096) as substrate; assay type: biochemical; conditions: substrate hUpf1/SMG-2 fusion protein (S1096), read-out: IC50, inhibition of the kinase activity of 6H-hSMG-1
# T1 construct: made in house; host or cells: 293T cells transfected with SR6H-hSMG-1; immunoprecipitated with anti-polyhistidine antibody
# T1 sequence (Q96Q15 111-3661): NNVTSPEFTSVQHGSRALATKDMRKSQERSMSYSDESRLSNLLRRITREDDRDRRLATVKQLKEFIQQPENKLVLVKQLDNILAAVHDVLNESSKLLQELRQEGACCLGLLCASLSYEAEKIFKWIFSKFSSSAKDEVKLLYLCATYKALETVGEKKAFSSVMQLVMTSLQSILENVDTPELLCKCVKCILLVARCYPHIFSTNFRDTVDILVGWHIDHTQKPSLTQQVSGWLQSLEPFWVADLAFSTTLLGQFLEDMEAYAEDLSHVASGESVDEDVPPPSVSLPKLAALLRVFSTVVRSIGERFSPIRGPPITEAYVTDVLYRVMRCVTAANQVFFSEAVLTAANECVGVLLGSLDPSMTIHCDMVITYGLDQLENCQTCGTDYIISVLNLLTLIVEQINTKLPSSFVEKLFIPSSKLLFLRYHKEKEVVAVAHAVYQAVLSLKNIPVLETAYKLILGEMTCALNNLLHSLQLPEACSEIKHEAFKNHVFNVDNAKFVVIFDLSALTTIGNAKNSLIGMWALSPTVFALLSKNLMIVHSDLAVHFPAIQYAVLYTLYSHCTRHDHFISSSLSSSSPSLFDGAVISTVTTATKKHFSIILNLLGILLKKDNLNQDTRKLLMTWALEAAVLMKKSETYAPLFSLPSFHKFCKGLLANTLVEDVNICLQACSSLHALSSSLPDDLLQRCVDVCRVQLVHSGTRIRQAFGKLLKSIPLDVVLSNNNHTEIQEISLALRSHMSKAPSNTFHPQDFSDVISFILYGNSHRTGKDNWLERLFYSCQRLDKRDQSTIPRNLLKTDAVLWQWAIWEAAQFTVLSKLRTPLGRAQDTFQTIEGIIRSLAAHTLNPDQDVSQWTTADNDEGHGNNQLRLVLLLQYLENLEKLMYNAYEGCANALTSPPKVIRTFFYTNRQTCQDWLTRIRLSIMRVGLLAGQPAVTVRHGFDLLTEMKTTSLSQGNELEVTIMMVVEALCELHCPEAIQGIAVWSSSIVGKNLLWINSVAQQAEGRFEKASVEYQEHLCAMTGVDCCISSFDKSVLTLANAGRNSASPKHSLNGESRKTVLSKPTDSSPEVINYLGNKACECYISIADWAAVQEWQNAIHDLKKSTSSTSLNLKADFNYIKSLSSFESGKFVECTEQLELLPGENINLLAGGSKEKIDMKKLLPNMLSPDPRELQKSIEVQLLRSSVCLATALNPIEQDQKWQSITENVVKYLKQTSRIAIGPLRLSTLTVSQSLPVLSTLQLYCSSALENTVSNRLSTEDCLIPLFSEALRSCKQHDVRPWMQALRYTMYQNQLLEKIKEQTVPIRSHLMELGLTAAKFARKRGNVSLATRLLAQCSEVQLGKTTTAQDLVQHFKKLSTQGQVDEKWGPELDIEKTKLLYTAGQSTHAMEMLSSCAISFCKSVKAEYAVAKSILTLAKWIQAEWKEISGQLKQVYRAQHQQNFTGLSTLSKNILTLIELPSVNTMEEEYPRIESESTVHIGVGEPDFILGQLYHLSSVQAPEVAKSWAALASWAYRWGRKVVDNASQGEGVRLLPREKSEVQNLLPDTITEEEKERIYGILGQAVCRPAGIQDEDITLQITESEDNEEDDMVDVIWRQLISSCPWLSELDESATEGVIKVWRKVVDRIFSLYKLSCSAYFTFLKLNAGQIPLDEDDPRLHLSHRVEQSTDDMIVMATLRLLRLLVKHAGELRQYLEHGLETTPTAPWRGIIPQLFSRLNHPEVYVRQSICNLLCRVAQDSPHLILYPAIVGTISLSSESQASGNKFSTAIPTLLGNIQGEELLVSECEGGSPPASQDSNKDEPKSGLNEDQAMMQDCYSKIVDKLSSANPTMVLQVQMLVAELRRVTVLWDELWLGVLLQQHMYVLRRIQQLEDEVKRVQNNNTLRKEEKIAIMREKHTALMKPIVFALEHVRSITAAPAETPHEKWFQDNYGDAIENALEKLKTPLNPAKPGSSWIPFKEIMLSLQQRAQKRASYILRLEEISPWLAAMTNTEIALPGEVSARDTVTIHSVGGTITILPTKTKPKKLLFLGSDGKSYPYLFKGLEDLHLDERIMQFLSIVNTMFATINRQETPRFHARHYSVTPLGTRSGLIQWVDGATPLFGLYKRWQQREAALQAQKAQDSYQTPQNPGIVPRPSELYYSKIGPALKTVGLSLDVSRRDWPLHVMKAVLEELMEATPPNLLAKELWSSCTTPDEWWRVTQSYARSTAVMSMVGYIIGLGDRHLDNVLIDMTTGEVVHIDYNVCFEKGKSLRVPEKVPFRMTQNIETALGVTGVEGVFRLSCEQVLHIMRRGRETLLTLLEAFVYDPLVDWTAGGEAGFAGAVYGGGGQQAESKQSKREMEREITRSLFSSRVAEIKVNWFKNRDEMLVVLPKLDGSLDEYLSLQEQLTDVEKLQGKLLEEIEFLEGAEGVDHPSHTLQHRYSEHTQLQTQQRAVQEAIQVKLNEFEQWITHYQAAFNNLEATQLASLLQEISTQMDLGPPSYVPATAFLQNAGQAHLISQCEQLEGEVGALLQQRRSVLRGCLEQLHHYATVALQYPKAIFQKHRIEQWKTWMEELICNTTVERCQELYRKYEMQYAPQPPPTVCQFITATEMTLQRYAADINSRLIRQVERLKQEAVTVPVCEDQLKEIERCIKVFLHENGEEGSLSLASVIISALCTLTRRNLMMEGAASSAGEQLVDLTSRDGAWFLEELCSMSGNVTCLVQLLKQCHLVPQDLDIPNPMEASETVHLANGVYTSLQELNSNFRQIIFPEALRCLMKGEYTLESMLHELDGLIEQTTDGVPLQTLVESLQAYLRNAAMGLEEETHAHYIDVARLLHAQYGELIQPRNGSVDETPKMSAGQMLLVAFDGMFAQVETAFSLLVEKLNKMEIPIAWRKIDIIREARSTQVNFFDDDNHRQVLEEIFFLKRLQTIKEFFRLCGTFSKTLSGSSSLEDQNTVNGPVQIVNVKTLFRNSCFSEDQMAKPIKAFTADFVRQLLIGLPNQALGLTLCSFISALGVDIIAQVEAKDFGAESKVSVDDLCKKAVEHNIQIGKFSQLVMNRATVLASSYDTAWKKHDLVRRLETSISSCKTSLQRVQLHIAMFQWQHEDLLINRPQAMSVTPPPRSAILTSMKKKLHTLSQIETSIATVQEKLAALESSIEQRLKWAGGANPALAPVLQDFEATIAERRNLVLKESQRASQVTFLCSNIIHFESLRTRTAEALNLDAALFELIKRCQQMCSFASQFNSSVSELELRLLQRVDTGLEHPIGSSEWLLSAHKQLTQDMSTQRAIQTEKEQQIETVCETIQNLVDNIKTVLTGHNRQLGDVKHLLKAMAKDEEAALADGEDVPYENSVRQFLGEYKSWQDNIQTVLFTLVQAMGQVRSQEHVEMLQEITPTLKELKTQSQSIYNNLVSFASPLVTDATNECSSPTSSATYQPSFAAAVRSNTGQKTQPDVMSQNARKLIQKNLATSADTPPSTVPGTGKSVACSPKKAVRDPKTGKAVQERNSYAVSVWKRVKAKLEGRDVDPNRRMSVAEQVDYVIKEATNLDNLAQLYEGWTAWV
# Experimental: The immunoprecipitates obtained in the Example 6(1) were washed with a lysis buffer F containing 0.25 mol/L LiCl, and then washed two times with a 1×kinase reaction buffer [10 mmol/L HEPES-KOH (pH7.5), 50 mmol/L β-glycerophosphoric acid, 50 mmol/L NaCl, 1 mmol/L dithiothreitol (DTT), and 10 mmol/L MnCl2].
# To each of the washed immunoprecipitates, 25 μL of 2×kinase reaction buffer (that is, two-fold concentrations of the above kinase reaction buffer) was added. The phosphorylation reaction was started by adding 10 mmol/L ATP and 370 kBq [γ-^32P] ATP (6000 Ci/mmol; Amersham Pharmacia Biotech) in equal amounts (25 μL) and continued, with occasional stirring, at 30° C. for 30 minutes. The final reaction amount was maintained at 50 μL, then 25 μL of a 4×SDS sample buffer was added to stop the reaction. SDS-PAGE was performed at gel concentrations of 5.5% and 12.5%, and then autoradiography was carried out to detect the phosphorylated proteins. The phosphorylation strength of each protein was measured by an Image Analyzer BAS2000 (Fuji Film).
# More particularly, 6H-hSMG-1 was prepared in accordance with the procedure described in Example 7(3). In the presence of various concentrations of wortmannin or caffeine shown in FIG. 26 and FIG. 27, the hUpf1/SMG-2 fusion protein (S1096) prepared in Example 9(3) was used as the substrate, to perform an in vitro kinase assay. […]
# [1] = test system: hUpf1/SMG-2 in HeLa cells; assay: mobility shift of hUpf1/SMG-2 in HeLa cells treated with okadaic acid, Western blotting; assay type: cell-based, human; conditions: various concentrations, 4.5 hours, FIG. 23
# Experimental: The HeLa cells were treated with various concentrations of okadaic acid (OA; Calbiochem) for 4.5 hours, and then were recovered and dissolved in the 1×SDS sample buffer. After 6% SDS-PAGE was performed, Western blotting using an anti-hUpf1/SMG-2 antibody was performed to determine the mobility shift of hUpf1/SMG-2.
# [2] = test system: hUpf1/SMG-2 phosphorylation in HeLa cells; assay type: cell-based, human; conditions: 30 min pretreatment, then 4.5 hours with 50 nmol/L okadaic acid, FIG. 28
# Experimental: HeLa cells were pretreated for 30 minutes in the presence or absence of various concentrations of wortmannin, caffeine, or rapamycin shown in FIG. 28. Next, the cells were treated for 4.5 hours in the presence of wortmannin, caffeine, or rapamycin and in the presence or absence of 50 nmol/L okadaic acid. Cell lysates were prepared and analyzed by Western blotting using the anti-Upf1/SMG-2 antibody.
# Further, “hUPF1-P” means phosphorylated hUpf1/SMG-2, while “hUPF1” means unphosphorylated hUpf1/SMG-2.
# [3] = test system: BGG-39PTC mRNA in MEF-Tet OFF cells; assay: BGG reporter mRNA accumulation (NMD) in MEF-Tet OFF cells, Northern blotting; assay type: cell-based; conditions: 4.5 hours, 50 ng/ml doxycycline, FIG. 29
# Experimental: More particularly, MEF-Tet OFF cells were transfected with the reporter plasmid BGG-WT or the reporter plasmid BGG-39 PTC, and re-inoculated in eight dishes. The cells were then treated for 4.5 hours in the presence of 50 ng/ml doxycycline by various concentrations of caffeine (caff.), wortmannin (wort.), rapamycin (rap.), or cyclohexamide (CHX) shown in FIG. 29.
# The Total RNA was analyzed by Northern blotting using the BGG probe. In FIG. 29, “BG WT” means the results in the case of use of the reporter plasmid BGG-WT, “BG PTC” means the results in the case of use of the reporter plasmid BGG-39PTC, and “GAPDH” means the results in the case of use of the cDNA of glyceryl aldehyde-3-phosphate dehydrogenase as a probe. Further, “cont.”, “caff.”, “wort.”, “rap.”, and “CHX” show the results of the control (that is, in the absence of wortmannin, caffeine, rapamycin, and cyclohexamide), the results in the presence of caffeine, the results in the presence of wortmannin, the results in the presence of rapamycin, and the results in the presence of cyclohexamide, respectively.
smiles,measurement,setting,value
COC[C@H]1OC(=O)c2coc3c2[C@@]1(C)C1=C(C3=O)[C@@H]2CCC(=O)[C@@]2(C)C[C@H]1OC(C)=O [wortmannin],IC50,6H-hSMG-1; FIG. 26,~0.06 µM
C=C1[C@@H](O)[C@@H]2O[C@]3(CC[C@H](/C=C/[C@@H](C)[C@@H]4CC(C)=C[C@@]5(O[C@H](C[C@@](C)(O)C(=O)O)CC[C@H]5O)O4)O3)CC[C@H]2O[C@@H]1[C@@H](O)C[C@H](C)[C@H]1O[C@@]2(CCCCO2)CC[C@H]1C [okadaic acid],upwardly shifted (phosphorylated) band of hUpf1/SMG-2,[1],upwardly shifted band of hUpf1/SMG-2 appears
Cn1c(=O)c2c(ncn2C)n(C)c1=O [caffeine],IC50,6H-hSMG-1; FIG. 27,~300 µM
same,inhibition of the upward shift of hUpf1/SMG-2,[2],inhibited the upward shift
same,accumulation of BGG 39PTC mRNA,[3],resulted in the accumulation of BGG 39PTC
"C[C@@H]1C[C@@H]([C@H](O)CC2CC(=O)NC(=O)C2)C(=O)[C@@H](C)C1 [CHX, cyclohexamide]",inhibition of NMD,[3],inhibited NMD
